# Where two headings read alike, the source gives them in different places.
# Tests used:
# [1] = tested on: E. coli ESBL4 expressing CTX-M-15; assay: Broth microdilution MIC assay, E. coli CTX-M-15; type: cell-based; conditions: E. coli expressing Class A ESBL CTX-M-15
# [2] = tested on: K. pneumoniae A-1797 expressing KPC-2 and VIM-4; assay: Broth microdilution MIC assay, K. pneumoniae KPC-2 and VIM-4; type: cell-based; conditions: K. pneumoniae expressing KPC-2 and VIM-4
# [3] = tested on: P. aeruginosa Ps296 expressing VIM-2; assay: Broth microdilution MIC assay, P. aeruginosa VIM-2; type: cell-based; conditions: P. aeruginosa expressing carbapenemase VIM-2
# [4] = tested on: S. aureus MSSA-7 producing penicillinase PC-1; assay: Broth microdilution MIC assay, S. aureus PC-1; type: cell-based
# p99 AmpC β-lactamase = target: T1, p99 AmpC β-lactamase (Enterobacter cloacae, UniProt P05364); assay: β-Lactamase inhibition enzyme assay, p99 AmpC; type: biochemical
# T1 construct: made in house; host or cells: E. coli BL21(DE3)
# How it was run: (§1)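 Native untagged β-lactamases from E. coli BL21(DE3) were purified and preincubated with inhibitor 15 min at 37° C. Hydrolysis was then followed as initial rates: 100 μM nitrocefin at 486 nm for p99 AmpC and OXA-1, imipenem at 300 nm for KPC-2, cefotaxime at 260 nm for SHV-5. IC50 = 50% reduction versus no-inhibitor controls.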
# OXA-1 β-lactamase = target: T2, OXA-1 β-lactamase (Escherichia coli, UniProt P13661); assay: β-Lactamase inhibition enzyme assay, OXA-1; type: biochemical
# T2 construct: made in house; host or cells: E. coli BL21(DE3)
# How it was run: as §1
# KPC-2 β-lactamase = target: T3, KPC-2 β-lactamase (Klebsiella pneumoniae, UniProt Q9F663); assay: β-Lactamase inhibition enzyme assay, KPC-2; type: biochemical
# T3 construct: made in house; host or cells: E. coli BL21(DE3)
# How it was run: as §1
# SHV-5 β-lactamase = target: T4, SHV-5 β-lactamase (Klebsiella pneumoniae, UniProt P0A3M1); assay: β-Lactamase inhibition enzyme assay, SHV-5; type: biochemical
# T4 construct: made in house; host or cells: E. coli BL21(DE3)
# How it was run: as §1
# [5] = target: T5, VIM-2 metallo β-lactamase (Pseudomonas aeruginosa, UniProt Q9K2N0); assay: β-Lactamase inhibition enzyme assay, VIM-2; type: biochemical; conditions: Nitrocefin 100 μM as substrate, 486 nm; 15 min at 37° C. with enzyme, PBS pH 7.4; read-out: Class B VIM-2 IC50
# T5 construct: made in house; host or cells: E. coli BL21(DE3)
# How it was run: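 Purified untagged VIM-2, expressed in E. coli BL21(DE3), preincubated with inhibitor 15 min at 37 °C. Nitrocefin added at 100 μM final, and absorbance at 486 nm monitored for 10 min. IC50 taken as inhibitor concentration halving initial hydrolysis rate relative to uninhibited controls.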
# [6] = tested on: E. cloacae 144200 expressing p99 AmpC; assay: Broth microdilution MIC assay, E. cloacae P99; type: cell-based; conditions: fixed ceftazidime 4 μg/mL; CAMHB, 16-20 hours at 37° C.
# [7] = Nitrocefin 100 μM as substrate, 486 nm, 15 min at 37° C. with enzyme, PBS pH 7.4, read-out: Class D OXA-1 IC50
# [8] = imipenem as substrate, 300 nm, 15 min at 37° C. with enzyme, PBS pH 7.4, read-out: Class A KPC-2 IC50
# T3 sequence (Q9F663 25-293, looked up): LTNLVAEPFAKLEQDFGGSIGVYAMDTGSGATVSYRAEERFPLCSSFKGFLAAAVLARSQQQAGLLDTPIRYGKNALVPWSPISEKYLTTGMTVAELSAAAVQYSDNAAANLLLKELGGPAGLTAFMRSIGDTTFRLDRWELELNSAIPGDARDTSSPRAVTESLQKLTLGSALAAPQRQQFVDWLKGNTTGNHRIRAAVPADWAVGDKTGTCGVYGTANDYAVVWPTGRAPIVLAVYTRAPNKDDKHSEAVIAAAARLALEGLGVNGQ
# T1 sequence (P05364 21-381): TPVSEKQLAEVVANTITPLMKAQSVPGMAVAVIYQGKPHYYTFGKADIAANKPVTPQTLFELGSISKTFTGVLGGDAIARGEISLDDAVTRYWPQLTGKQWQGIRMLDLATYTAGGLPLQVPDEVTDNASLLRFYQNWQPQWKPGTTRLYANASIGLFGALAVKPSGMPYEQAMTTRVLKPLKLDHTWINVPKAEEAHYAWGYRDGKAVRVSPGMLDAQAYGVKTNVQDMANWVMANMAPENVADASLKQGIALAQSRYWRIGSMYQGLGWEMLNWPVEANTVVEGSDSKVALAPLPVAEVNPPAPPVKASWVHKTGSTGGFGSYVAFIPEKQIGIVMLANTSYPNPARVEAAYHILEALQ
# T2 sequence (P13661 26-276): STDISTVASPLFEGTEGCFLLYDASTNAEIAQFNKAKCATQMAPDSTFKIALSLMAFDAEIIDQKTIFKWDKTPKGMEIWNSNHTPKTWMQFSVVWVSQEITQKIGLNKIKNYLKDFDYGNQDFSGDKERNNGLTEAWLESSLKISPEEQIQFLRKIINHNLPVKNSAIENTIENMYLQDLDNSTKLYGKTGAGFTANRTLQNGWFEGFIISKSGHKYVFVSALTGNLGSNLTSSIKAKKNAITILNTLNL
# T4 sequence (P0A3M1 22-286): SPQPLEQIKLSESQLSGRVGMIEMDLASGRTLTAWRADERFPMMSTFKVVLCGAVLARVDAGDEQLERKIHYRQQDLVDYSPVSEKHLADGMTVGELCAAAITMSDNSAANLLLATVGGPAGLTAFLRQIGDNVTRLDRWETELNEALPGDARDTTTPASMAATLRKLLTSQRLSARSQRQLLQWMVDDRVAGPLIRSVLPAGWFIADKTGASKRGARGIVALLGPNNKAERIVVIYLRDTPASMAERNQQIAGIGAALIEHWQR
Compound,IC50 (p99 AmpC β-lactamase) [µM],IC50 (OXA-1 β-lactamase; [7]) [µM],IC50 (KPC-2 β-lactamase; [8]) [µM],IC50 (SHV-5 β-lactamase) [µM],IC50 [5] [µM],also measured
CC(C)(O/N=C(\C(=O)N[C@@H]1C(=O)N2C(C(=O)[O-])=C(C[n+]3ccccc3)CS[C@H]12)c1csc(N)n1)C(=O)O [Ceftazidime],,,,,,MIC alone of partner antibiotic [1]: > 128 mg/L
C[C@@H](O)[C@H]1C(=O)N2C(C(=O)O)=C(S[C@@H]3CN[C@H](C(=O)N(C)C)C3)[C@H](C)[C@H]12 [Meropenem],,,,,,MIC alone of partner antibiotic [2]: 64 mg/L; MIC alone of partner antibiotic [3]: 16 mg/L
"CCN1CCN(C(=O)N[C@@H](C(=O)N[C@@H]2C(=O)N3[C@@H]2SC(C)(C)[C@@H]3C(=O)O)c2ccccc2)C(=O)C1=O [Piperacillin, reference compound]",,,,,,"MIC alone of partner antibiotic ([4]; antibiotic alone, S. aureus producing penicillinase PC-1): 64 mg/L"
"NCc1cc(CN)cc(C(=O)N[C@H]2Cc3cccc(C(=O)O)c3OB2O)c1 [Example 44, (R)-3-(3,5-bis(aminomethyl)benzamido)-2-hydroxy-3,4-dihydro-2H-benzo[e][1,2]oxaborinine-8-carboxylic acid]",0.1 to 1,1 to 10,1 to 10,1 to 10,1 to 10,"MIC of Exemplary Compounds in presence of fixed β-lactams: Fixed CAZ, E. cl. 144200 p99 AmpC [6]: C (C represents the MIC in the presence of ≦4 μg/mL of a β-lactamase inhibitor of exemplary compounds)"
"O=C(O)c1cccc2c1OB(O)[C@@H](NC(=O)C1(c3ccccc3)CCNCC1)C2 [Example 3, (R)-2-hydroxy-3-(4-phenylpiperidine-4-carboxamido)-3,4-dihydro-2H-benzo[e][1,2]oxaborinine-8-carboxylic acid]",< 0.1,,,10 to 100,1 to 10,"IC50 (OXA-1 β-lactamase): 0.1 to 1 µM; MIC of Exemplary Compounds in presence of fixed β-lactams: Fixed Pip, S. aureus MSSA-7 PC-1 ([4]; fixed piperacillin 4 μg/mL, CAMHB, 16-20 hours at 37° C.): A (A represents an MIC of the fixed β-lactam antibiotic in the presence of >32 μg/mL of a β-lactamase inhibitor of exemplary compounds); IC50 (KPC-2 β-lactamase): < 0.1 µM"
"NCCn1ccc2ccc(C(=O)N[C@H]3Cc4cccc(C(=O)O)c4OB3O)cc21 [Example 41, (R)-3-{[1-(2-Amino-ethyl)-1H-indole-6-carbonyl]-amino}-2-hydroxy-3,4-dihydro-2H-benzo[e][1,2]oxaborinine-8-carboxylic acid]",< 0.1,< 0.1,< 0.1,< 0.1,< 0.1,
"O=C(N[C@H]1Cc2cccc(C(=O)O)c2OB1O)c1ccc(-c2ncc[nH]2)cc1 [Example 47, (R)-2-Hydroxy-3-[4-(1H-imidazol-2-yl)-benzoylamino]-3,4-dihydro-2H-benzo[e][1,2]oxaborinine-8-carboxylic acid]",< 0.1,< 0.1,< 0.1,< 0.1,0.1 to 1,
"N=C(N)NCc1cc(CNC(=N)N)cc(C(=O)N[C@H]2Cc3cccc(C(=O)O)c3OB2O)c1 [Example 45, (R)-3-(3,5-bis(guanidinomethyl)benzamido)-2-hydroxy-3,4-dihydro-2H-benzo[e][1,2]oxaborinine-8-carboxylic acid]",< 0.1,< 0.1,< 0.1,0.1 to 1,< 0.1,
"NCCNC(=O)c1ccccc1C(=O)N[C@H]1Cc2cccc(C(=O)O)c2OB1O [Example 54, (R)-3-(2-(2-aminoethylcarbamoyl)benzamido)-2-hydroxy-3,4-dihydro-2H-benzo[e][1,2]oxaborinine-8-carboxylic acid]",< 0.1,1 to 10,0.1 to 1,0.1 to 1,1 to 10,
"O=C(N[C@H]1Cc2cccc(C(=O)O)c2OB1O)c1ccc2nc[nH]c2c1 [Example 34, (R)-3-[(3H-Benzoimidazole-5-carbonyl)-amino]-2-hydroxy-3,4-dihydro-2H-benzo[e][1,2]oxaborinine-8-carboxylic acid]",< 0.1,< 0.1,< 0.1,< 0.1,0.1 to 1,
"O=C(N[C@H]1Cc2cccc(C(=O)O)c2OB1O)c1cnco1 [Example 52, (R)-2-Hydroxy-3-[(oxazole-5-carbonyl)-amino]-3,4-dihydro-2H-benzo[e][1,2]oxaborinine-8-carboxylic acid]",< 0.1,< 0.1,< 0.1,< 0.1,0.1 to 1,

# Source: patent US9376454B2, “Beta-lactamase inhibitors” (priority 2013, dated 2016)
